Here are results for 5 molecules from patent publication US20040220149A1, “Nerve cell survival promoters containing cyclic phosphatidic acid derivative” (priority 2001, published 2004).

Format in all cases: cell-based
In series [1] the test system is NIH-3T3, a mouse-derived fibroblast cell. Kind of series: Formation of actin stress fiber in NIH-3T3 by addition of lysophospholipids. The following applies: 10 μM lipid, 37° C., 30 minutes, serum-starved NIH-3T3, Rhodamine phalloidin staining; control without lipid: no stress fiber. As to the method: (A-5) Formation of Stress Fiber in NIH-3T3 by Addition of Various Lysophospholipids
NIH-3T3, a mouse-derived fibroblast cell, was incubated in a Dulbecoo's Modified Eagle's Medium (DMEM) containing 10% fetal bovine serum (FBS; made by Moregate), and was used in the Experiment. 2.5×10^4 cells of the NIH-3T3 were inoculated in a petri dish (10 cm in diameter) paved with cover glasses of 22 mm in diameter, and the medium was replacing with a FBS-free medium after 24 hours, and the cells were incubated in a serum starvation state for 48 hours. 10 μM of the lysophospholipid was added, and the cells were incubated at 37° C. for 30 minutes for stimulation. Then, the cells were fixed in the Dalbecco's PBS containing 3.7% of paraformaldehyde and 0.1% of Triton X-100 at room temperature for 10 minutes. Thereafter, the cells were stained with 5 units/ml of rhodamine phalloidin (made by Funakoshi) at 37° C. for 1 hour. The cover glasses were washed with PBS thrice, and observation was carried out by a cofocus laser microscope TCS NT Control laser Scanning Microscope (made by Leica).
The product obtained by the A sp362-derived PLD reaction was studied with respect to its biochemical activity in order to confirm further that it was a compound which is identical to cPA. Namely, the activity of forming actin stress fiber in a fibroblast cell, one of the physiological acteivities of cPA, was studied. To NIH-3T3, i.e. a fibroblast cell line derived from mouse, in the subconfluent state in the serum starvation state, each 10 μM of LPA, a chemically synthesized PHYLPA, or cPA, i.e. the PLD reaction product was added at 37° C. for 30 minutes, and then actin stress fiber was stained with Rhodamine phalloidin, and observation was carried out.

In series [2] the test system is primary cultured nerve cells derived from a hippocampus of a rat fetal brain. Briefly: Influence of P13K inhibitors on the increase of nerve cell survival rate by cPA. The note with it: 10 μM, nerve cell culture with cPA, 48 hours.
Procedure: Wortmannin (made by Sigma) and LY294002 (made by Sigma), which are inhibitors against phosphatidyl inositol 3-kinase (P13K), were dissolved in DMSO at the concentration of 10 mM and 50 mM respectively, and diluted with PBS. Each of the solutions was added to the cell culture solution at the respective final concentrations of 30 nM and 10 μM. The inhibitors were added to the cell culture solution at 2 hours prior to the addition of cPA, to carry out pretreatment. The cells were photographed at 48 hours after the addition of cPA, and the survival of the cells was morphologically judged on judged on the photographs to calculate the survival rate.
Series [3] shares this test system. Briefly: Measurement of the elongation of neurites. As to the method:
(§1) (A-1) Preparation and Culturing of the Primary Cultured Nerve Cells Derived From a Hippocampus of a Rat Fetal Brain
(§2) Sprague-Dowley rat with 16 days of pregnancy were used as material. The rat were anesthetized with ether, from which the fetal was taken out. The whole brain was taken out under a stereomicroscope, and a hippocampus inside the cerebral cortex was picked out. The picked out hippocampus was collected in a 15 ml centrifuging tube, and 0.5 ml of 2.5% trypsin and a culture solution was added to be a 5 ml solution. The mixture was incubated at 37° C. for 15 minutes and then centrifuged at 3,000 rpm for 15 minutes. The supernatant was removed, 5 ml of the culture solution was added, and the mixture was centrifuged at 3,000 rpm for 15 minutes. The procedure was additionally repeated twice. After adding 3-5 ml of the culture solution, the resultant was pipetted with a Pasteur pipette and then with an injection needle (TERUMO NEEDLE (0.70×38 mm); made by Terumo). The cells, which were finally dissociated through a cell strainer (FALCON Cell Strainer 70 μm; made by FALCON), were primarily cultured on a plate. A culture liquid and a method for coating a plate which allow the nerve cells to be cultured without aggregation, were studied.
(A-3) Measurement of the Elongation of Neurites
In order to study the influence of cPA on the elongation of neurites, the cells were primarily cultured according to the method as described in (A-1), and were photographed at 12, 18 and 24 hours after the start of the culture. The average length of neurites per cell and the number of cells having the neurite at respective time points were analyzed by an image analysis software (NIH Image 1.62).
5 μM of oleoyl cPA was added to the cell culture solution, and the cells were photographed after 24, 48, and 72 hours. The average length of neurites per cell was analyzed by the analysis with the image analysis software (NIH Image 1.62). […] The effect was strongest after 24 hours, as compared with those after 48 hours (1.5 times) and 72 hours (1.2 times) (FIG. 10(a)). Thus, it was considered that the evaluation of the action of cPA on the elongation of neurites at earlier time points was necessary, and the effect of cPA at various levels on the elongation of neurites was studied at 12, 18 and 24 hours after addition. As the result, at the time point after 12 hours, the elongation of neurites in the sample to which cPA of 1.0 μM was added became about 1.7 times that of the control, and gave the maximum value (FIG. 10(b)).

Series [4] has the same test system. Briefly: Survival rate of primary cultured nerve cells derived from rat fetal hippocampus. How it is done:
as §1
as §2, with “studied. […]” for “studied.”

Consider lysophosphatidic acid [LPA], for which the “formation of actin stress fiber” value in series [1] is given as “the formation of stress fibers was observed”.

As to `O=c1cc(N2CCOCC2)oc2c(-c3ccccc3)cccc12` [LY294002], the “cytotoxicity (cell morphology)” value in series [2] was “many cells were destroyed and deformed”.

In the case of `CCCCCCCC/C=C\CCCCCCCC(=O)OCC1COP(=O)(O)O1` (stereo not shown) [oleoyl cPA, 1-oleoyl cyclic phosphatidic acid], the “ratio of cells having neurites” value in series [3] (1.0 μM, 24 hours after addition) is on record as “high”. In addition, the “elongation of neurites relative to control (maximum value)” value in series [3] (1.0 μM, after 12 hours) is reported as “about 1.7 times”. Also, the “average length of neurites per cell relative to control” value in series [3] (5 μM, after 24 hours) was “twice longer than that of the control”; in series [3] (5 μM, after 48 hours), 1.5 times; in series [3] (5 μM, after 72 hours) it was 1.2 times. The “elongation of neurites compared with control without cPA addition” value in series [3] (5 μM, serum-free culture) is “the elongation of neurites was also observed”. Besides, the “formation of actin stress fiber” value in series [1] was “the formation of stress fibers was observed”. The “survival of the cells compared with control without cPA addition” value in series [4] (5 μM, serum-free culture) is recorded as “the survival of the cells became better”. For the same molecule, the “cPA level most effective for the cell survival” value in series [4] (0.5, 1.0, 5.0 or 10.0 μM tested, cell density 3.0×10^5 cells/cm^2) amounted to 1.0 µM.

Turning to `CCCCCC[C@@H]1C[C@@H]1CCCCCCCC(=O)OC[C@@H]1COP(=O)(O)O1` [PHYLPA], the “formation of actin stress fiber” value in series [1] is given as “the formation of stress fibers was observed”.

Consider nerve growth factor [NGF], for which, in series [3] ((optimal level), after 12 hours), the “elongation of neurites compared with that of 1.0 μM cPA (about 1.7 times control)” value was “comparable”.
